Measurements as given in paper PMC6081437, “The potency of the broad spectrum bacteriocin, bactofencin A, against staphylococci is highly dependent on primary structure, N-terminal charge and disulphide formation” (Scientific Reports, 2018).
Bridge positions count the residues as written; N and C are the ends. Square brackets hold non-standard residues; d marks the D form. Ends that are not written are not given here. Peptide text beside a SMILES is read from it.

System: S. aureus DPC5246
Type: cell-based, Staphylococcus aureus
Conditions: for Activity (Minimum Inhibitory Concentration, MIC): DPC5246, pH 6.8; for fold reduction in activity compared with bactofencin A (wild type): S. aureus DPC5246, agar well diffusion MIC
Description: Peptides were resuspended at 1000 µM in 50 mM sodium phosphate buffer pH 6.8 and checked for purity by MALDI-TOF-MS. Peptides were serially diluted 1 in 4 to give a dilution series of 250, 62.50, 15.63, 3.91, 0.98 and 0.24 µM and assayed by the agar well diffusion assay described by Ryan et al.[19]. Briefly, 50 µl aliquots of each peptide concentration were plated on a S. aureus DPC5246 indicator plate and the plate incubated at 37 °C. Peptide activity (Minimum Inhibitory Concentration (MIC)) was taken as the lowest concentration of peptide to give a zone of inhibition. All assays were performed in triplicate. The dilution series values were rounded to the nearest whole number to give 1000, 250, 63, 16, 4, 1 and 0.25 µM and data is colour coded for ease of interpretation.

Molecule | Activity (Minimum Inhibitory Concentration, MIC) [µM] | fold reduction in activity compared with bactofencin A (wild type) [fold]
CSCC[C@@H]1NC(=O)CNC(=O)[C@H]([C@@H](C)O)NC(=O)[C@@H]2CCCN2C(=O)[C@H](CCSC)NC(=O)CNC(=O)[C@H](CC(N)=O)NC(=O)[C@H](CC(N)=O)NC(=O)[C@H](Cc2ccc(O)cc2)NC(=O)[C@H](C(C)C)NC(=O)[C@H](CCCNC(=N)N)NC(=O)[C@@H](NC(=O)[C@H](CCCNC(=N)N)NC(=O)[C@H](Cc2c[nH]cn2)NC(=O)[C@H](CCCCN)NC(=O)[C@H](CCCCN)NC(=O)[C@H](CCCNC(=N)N)NC(=O)[C@@H](N)CCCCN)CSSC[C@@H](C(=O)O)NC(=O)[C@H](Cc2c[nH]c3ccccc23)NC(=O)[C@H](CCCNC(=N)N)NC(=O)[C@H](C)NC1=O [Y19A] (H-KRKKHRCRVYNNGMPTGMARWC-OH; disulfide 7-22) | 1 | 
CSCC[C@@H]1NC(=O)CNC(=O)[C@H]([C@@H](C)O)NC(=O)[C@@H]2CCCN2C(=O)[C@H](CCSC)NC(=O)CNC(=O)[C@H](CC(N)=O)NC(=O)[C@H](CC(N)=O)NC(=O)[C@H](Cc2ccc(O)cc2)NC(=O)[C@H](C(C)C)NC(=O)[C@H](CCCNC(=N)N)NC(=O)[C@@H](NC(=O)[C@H](CCCNC(=N)N)NC(=O)[C@H](Cc2c[nH]cn2)NC(=O)[C@H](CCCCN)NC(=O)[C@H](CCCCN)NC(=O)[C@H](CCCNC(=N)N)NC(=O)[C@@H](N)CCCCN)CSSC[C@@H](C(=O)O)NC(=O)[C@H](Cc2c[nH]c3ccccc23)NC(=O)[C@H](C)NC(=O)[C@H](Cc2ccc(O)cc2)NC1=O [R20A] (H-KRKKHRCRVYNNGMPTGMYAWC-OH; disulfide 7-22) | 1 | 
CSCC[C@@H]1NC(=O)CNC(=O)[C@H]([C@@H](C)O)NC(=O)[C@@H]2CCCN2C(=O)[C@H](CCSC)NC(=O)CNC(=O)[C@H](CC(N)=O)NC(=O)[C@@H](CC(N)=O)NC(=O)[C@H](Cc2ccc(O)cc2)NC(=O)[C@H](C(C)C)NC(=O)[C@H](CCCNC(=N)N)NC(=O)[C@@H](NC(=O)[C@H](CCCNC(=N)N)NC(=O)[C@H](Cc2c[nH]cn2)NC(=O)[C@H](CCCCN)NC(=O)[C@H](CCCCN)NC(=O)[C@H](CCCNC(=N)N)NC(=O)[C@@H](N)CCCCN)CSSC[C@@H](C(=O)O)NC(=O)[C@H](Cc2c[nH]c3ccccc23)NC(=O)[C@H](CCCNC(=N)N)NC(=O)[C@H](Cc2ccc(O)cc2)NC1=O [N11Nd] (H-KRKKHRCRVY[dN]NGMPTGMYRWC-OH; disulfide 7-22; N-terminus assumed) | > 1000 | 
CSCC[C@@H]1NC(=O)CNC(=O)[C@H]([C@@H](C)O)NC(=O)[C@@H]2CCCN2C(=O)[C@H](CCSC)NC(=O)CNC(=O)[C@H](CC(N)=O)NC(=O)[C@H](CC(N)=O)NC(=O)[C@H](Cc2ccc(O)cc2)NC(=O)[C@H](C(C)C)NC(=O)[C@H](CCCNC(=N)N)NC(=O)[C@@H](NC(=O)[C@H](CCCNC(=N)N)NC(=O)[C@H](Cc2c[nH]cn2)NC(=O)[C@H](CCCCN)NC(=O)[C@H](CCCCN)NC(=O)[C@H](CCCNC(=N)N)NC(=O)[C@@H](N)CCCCN)CSSC[C@@H](C(=O)O)NC(=O)[C@H](Cc2c[nH]c3ccccc23)NC(=O)[C@H](CCCNC(=N)N)NC(=O)[C@@H](Cc2ccc(O)cc2)NC1=O [Y19Yd] (H-KRKKHRCRVYNNGMPTGM[dY]RWC-OH; disulfide 7-22; N-terminus assumed) | 63 | 63
CSCC[C@@H]1NC(=O)CNC(=O)[C@H]([C@@H](C)O)NC(=O)[C@@H]2CCCN2C(=O)[C@H](CCSC)NC(=O)CNC(=O)[C@H](CC(N)=O)NC(=O)[C@H](CC(N)=O)NC(=O)[C@H](Cc2ccc(O)cc2)NC(=O)[C@H](C(C)C)NC(=O)[C@H](CCCNC(=N)N)NC(=O)[C@@H](NC(=O)[C@H](CCCNC(=N)N)NC(=O)[C@H](Cc2c[nH]cn2)NC(=O)[C@H](CCCCN)NC(=O)[C@H](CCCCN)NC(=O)[C@H](C)NC(=O)[C@@H](N)CCCCN)CSSC[C@@H](C(=O)O)NC(=O)[C@H](Cc2c[nH]c3ccccc23)NC(=O)[C@H](CCCNC(=N)N)NC(=O)[C@H](Cc2ccc(O)cc2)NC1=O [R2A] (H-KAKKHRCRVYNNGMPTGMYRWC-OH; disulfide 7-22) | 1 | 
CSCC[C@@H]1NC(=O)CNC(=O)[C@H]([C@@H](C)O)NC(=O)[C@@H]2CCCN2C(=O)[C@@H](CCSC)NC(=O)CNC(=O)[C@H](CC(N)=O)NC(=O)[C@H](CC(N)=O)NC(=O)[C@H](Cc2ccc(O)cc2)NC(=O)[C@H](C(C)C)NC(=O)[C@H](CCCNC(=N)N)NC(=O)[C@@H](NC(=O)[C@H](CCCNC(=N)N)NC(=O)[C@H](Cc2c[nH]cn2)NC(=O)[C@H](CCCCN)NC(=O)[C@H](CCCCN)NC(=O)[C@H](CCCNC(=N)N)NC(=O)[C@@H](N)CCCCN)CSSC[C@@H](C(=O)O)NC(=O)[C@H](Cc2c[nH]c3ccccc23)NC(=O)[C@H](CCCNC(=N)N)NC(=O)[C@H](Cc2ccc(O)cc2)NC1=O [M14Md] (H-KRKKHRCRVYNNG[dM]PTGMYRWC-OH; disulfide 7-22; N-terminus assumed) | 63 | 63
CSCC[C@@H]1NC(=O)CNC(=O)[C@H]([C@@H](C)O)NC(=O)[C@@H]2CCCN2C(=O)[C@H](CCSC)NC(=O)CNC(=O)[C@H](CC(N)=O)NC(=O)[C@H](CC(N)=O)NC(=O)[C@H](Cc2ccc(O)cc2)NC(=O)[C@H](C(C)C)NC(=O)[C@H](CCCNC(=N)N)NC(=O)[C@H](NC(=O)[C@H](CCCNC(=N)N)NC(=O)[C@H](Cc2c[nH]cn2)NC(=O)[C@H](CCCCN)NC(=O)[C@H](CCCCN)NC(=O)[C@H](CCCNC(=N)N)NC(=O)[C@@H](N)CCCCN)CSSC[C@@H](C(=O)O)NC(=O)[C@H](Cc2c[nH]c3ccccc23)NC(=O)[C@H](CCCNC(=N)N)NC(=O)[C@H](Cc2ccc(O)cc2)NC1=O [C7Cd] (H-KRKKHR[dC]RVYNNGMPTGMYRWC-OH; disulfide 7-22; N-terminus assumed) | 16 | 
KRKKHRCRVYNNGMPTGMYRWA-OH [C22A] | 63 | 63
CSCC[C@@H]1NC(=O)CNC(=O)[C@H]([C@@H](C)O)NC(=O)[C@@H]2CCCN2C(=O)[C@H](CCSC)NC(=O)CNC(=O)[C@H](CC(N)=O)NC(=O)[C@H](CC(N)=O)NC(=O)[C@H](Cc2ccc(O)cc2)NC(=O)[C@H](C(C)C)NC(=O)[C@H](CCCNC(=N)N)NC(=O)[C@@H](NC(=O)[C@H](CCCNC(=N)N)NC(=O)[C@H](Cc2c[nH]cn2)NC(=O)[C@@H](N)CCCCN)CSSC[C@@H](C(=O)O)NC(=O)[C@H](Cc2c[nH]c3ccccc23)NC(=O)[C@H](CCCNC(=N)N)NC(=O)[C@H](Cc2ccc(O)cc2)NC1=O [K4-C22] (H-KHRCRVYNNGMPTGMYRWC-OH; disulfide 4-19; N-terminus assumed) | 4 | 
CSCC[C@@H]1NC(=O)CNC(=O)[C@H]([C@@H](C)O)NC(=O)[C@@H]2CCCN2C(=O)[C@H](CCSC)NC(=O)CNC(=O)[C@H](CC(N)=O)NC(=O)[C@H](CC(N)=O)NC(=O)[C@H](Cc2ccc(O)cc2)NC(=O)[C@H](C(C)C)NC(=O)[C@H](CCCNC(=N)N)NC(=O)[C@@H](NC(=O)[C@H](CCCNC(=N)N)NC(=O)[C@H](Cc2c[nH]cn2)NC(=O)[C@H](CCCCN)NC(=O)[C@H](CCCCN)NC(=O)[C@H](CCCNC(=N)N)NC(=O)[C@@H](N)CCCCN)CSSC[C@H](C(=O)O)NC(=O)[C@H](Cc2c[nH]c3ccccc23)NC(=O)[C@H](CCCNC(=N)N)NC(=O)[C@H](Cc2ccc(O)cc2)NC1=O [C22Cd] (H-KRKKHRCRVYNNGMPTGMYRW[dC]-OH; disulfide 7-22; N-terminus assumed) | 4 | 
CSCC[C@@H]1NC(=O)CNC(=O)[C@H]([C@@H](C)O)NC(=O)[C@@H]2CCCN2C(=O)[C@H](CCSC)NC(=O)CNC(=O)[C@H](C)NC(=O)[C@H](CC(N)=O)NC(=O)[C@H](Cc2ccc(O)cc2)NC(=O)[C@H](C(C)C)NC(=O)[C@H](CCCNC(=N)N)NC(=O)[C@@H](NC(=O)[C@H](CCCNC(=N)N)NC(=O)[C@H](Cc2c[nH]cn2)NC(=O)[C@H](CCCCN)NC(=O)[C@H](CCCCN)NC(=O)[C@H](CCCNC(=N)N)NC(=O)[C@@H](N)CCCCN)CSSC[C@@H](C(=O)O)NC(=O)[C@H](Cc2c[nH]c3ccccc23)NC(=O)[C@H](CCCNC(=N)N)NC(=O)[C@H](Cc2ccc(O)cc2)NC1=O [N12A] (H-KRKKHRCRVYNAGMPTGMYRWC-OH; disulfide 7-22) | 4 | 
CSCC[C@@H]1NC(=O)CNC(=O)[C@H]([C@@H](C)O)NC(=O)[C@@H]2CCCN2C(=O)[C@H](CCSC)NC(=O)CNC(=O)[C@H](CC(N)=O)NC(=O)[C@H](CC(N)=O)NC(=O)[C@H](Cc2ccc(O)cc2)NC(=O)[C@H](C(C)C)NC(=O)[C@H](CCCNC(=N)N)NC(=O)[C@@H](NC(=O)[C@H](C)NC(=O)[C@H](Cc2c[nH]cn2)NC(=O)[C@H](CCCCN)NC(=O)[C@H](CCCCN)NC(=O)[C@H](CCCNC(=N)N)NC(=O)[C@@H](N)CCCCN)CSSC[C@@H](C(=O)O)NC(=O)[C@H](Cc2c[nH]c3ccccc23)NC(=O)[C@H](CCCNC(=N)N)NC(=O)[C@H](Cc2ccc(O)cc2)NC1=O [R6A] (H-KRKKHACRVYNNGMPTGMYRWC-OH; disulfide 7-22) | 1 | 
CSCC[C@@H]1NC(=O)[C@H](C)NC(=O)[C@H]([C@@H](C)O)NC(=O)[C@@H]2CCCN2C(=O)[C@H](CCSC)NC(=O)CNC(=O)[C@H](CC(N)=O)NC(=O)[C@H](CC(N)=O)NC(=O)[C@H](Cc2ccc(O)cc2)NC(=O)[C@H](C(C)C)NC(=O)[C@H](CCCNC(=N)N)NC(=O)[C@@H](NC(=O)[C@H](CCCNC(=N)N)NC(=O)[C@H](Cc2c[nH]cn2)NC(=O)[C@H](CCCCN)NC(=O)[C@H](CCCCN)NC(=O)[C@H](CCCNC(=N)N)NC(=O)[C@@H](N)CCCCN)CSSC[C@@H](C(=O)O)NC(=O)[C@H](Cc2c[nH]c3ccccc23)NC(=O)[C@H](CCCNC(=N)N)NC(=O)[C@H](Cc2ccc(O)cc2)NC1=O [G17A] (H-KRKKHRCRVYNNGMPTAMYRWC-OH; disulfide 7-22) | 4 | 
